# Results published in PubChem BioAssay AID743232 (The Scripps Research Institute Molecular Screening Center, 2013).
# The source made the active and inactive calls. How the calls were made is not given here.
# Test system: Ga16-expressing cells (no TAAR1), calcium fluorescence, counterscreen
# Assay: Ga16 cell calcium activation, concentration series – fluorescence, dose response, counter-screen for TAAR1 agonist project, late-stage follow-up (AID 743232)
row,SMILES,EC50
1,O=c1[nH]cc(NCCc2ccccc2)c(=O)[nH]1,> 29.9 µM (inactive)
2,OCCNc1nc(Nc2ccc(O)cc2)nc2ccccc12,> 29.9 µM (inactive)
3,c1ccc(CCn2nnnc2C(c2cccs2)N2CCN(Cc3ccc4c(c3)OCO4)CC2)cc1 (stereo unspecified),> 29.9 µM (inactive)
4,O=C(Nc1cccc2ccccc12)N1CCc2ccccc2C1,> 29.9 µM (inactive)
5,NC(N)=Nc1cc2ccccc2c2ccccc12,> 29.9 µM (inactive)
6,CCOC(=O)C(NC(=O)CC)(N1CCc2ccccc2C1)C(F)(F)F (stereo unspecified),> 29.9 µM (inactive)
7,COc1cc(C(=O)CCN2CCC(c3ccccc3)C2)cc(OC)c1OC (stereo unspecified),> 29.9 µM (inactive)
8,O=C(Nc1cccnc1)Nc1cccc(F)c1,> 29.9 µM (inactive)
9,Nc1nc(Nc2ccccc2)nc2ccccc12,> 29.9 µM (inactive)
10,c1ccc(CCN2CN(CCCN3CCOCC3)c3nc4ccccc4n3C2)cc1,> 29.9 µM (inactive)
11,O=C(Nc1ccccc1)Nc1ccncc1,> 29.9 µM (inactive)
12,Cc1ccc(NC(=O)CCN2CCc3ccccc3C2)cc1,> 29.9 µM (inactive)
13,O=C(CCN1CCc2ccccc2CC1)c1ccc2c(c1)OCCO2,> 29.9 µM (inactive)
14,NCc1c(O)ccc2ccccc12,> 29.9 µM (inactive)
15,Nc1nc(Nc2cccc(F)c2)nc2ccccc12,> 29.9 µM (inactive)
16,NC(N)=NN=Cc1c(Cl)cccc1Cl,> 29.9 µM (inactive)

row,SMILES,EC50
1,CC(=NCCc1ccccc1)C1CCOC1=O (stereo unspecified),> 29.9 µM (inactive)
2,O=C(CCN1CCC(c2ccccc2)C1)c1ccc2c(c1)OCCO2 (stereo unspecified),> 29.9 µM (inactive)
3,c1ccc2c3c([nH]c2c1)CCNC3,> 29.9 µM (inactive)
4,CC(=C1C(=O)c2ccccc2C1=O)N1CCc2ccccc2C1,> 29.9 µM (inactive)
5,O=C(Nc1ccncc1)Nc1ccc(F)cc1,> 29.9 µM (inactive)
6,O=C(C(=O)N1CCc2ccccc2C1)c1cn(CC(=O)N2CCCCC2)c2ccccc12,> 29.9 µM (inactive)
7,CC1(C)CCCN(C(=O)c2coc(=O)c(Br)c2)C1,> 29.9 µM (inactive)
8,Cc1cc(N(C)C)nc(Nc2ccccc2)n1,> 29.9 µM (inactive)
9,CCOC(=O)C(NC(C)=O)(N1CCc2ccccc2C1)C(F)(F)F (stereo unspecified),> 29.9 µM (inactive)
10,Cc1[nH]c2ccccc2c1CN1CCc2ccccc2C1,> 29.9 µM (inactive)
11,O=C(CCN1CCC(c2ccccc2)C1)c1cccs1 (stereo unspecified),> 29.9 µM (inactive)
12,O=C(CCCCl)N1CCc2[nH]c3ccccc3c2C1,> 29.9 µM (inactive)
13,OCCNc1nc(Nc2cccc(O)c2)nc2ccccc12,> 29.9 µM (inactive)
14,c1ccc2c(c1)CCN(c1nc3cc4c(cc3s1)OCO4)C2,> 29.9 µM (inactive)
15,Cc1cc(C)n(C(CC(=O)N2CCc3ccccc3C2)C(=O)O)n1 (stereo unspecified),> 29.9 µM (inactive)
